“And” between values parts separate entries of the source, which are not always exact repeats. Equal entries are not always repeated. Where two headings read alike, the source gives them in different places.
Tests used:
BCR-ABL transcript level [1] = assay: Molecular response (MMR, BCR-ABL transcript level ≤ 0.1% IS) to nilotinib treatment; type: in vivo, CP-CML patients
Procedure: The response was considered optimal when a MMR was achieved within 12 months of nilotinib treatment. MMR was defined as a BCR-ABL transcript level of ≤ 0.1% on the International Scale. For patients already on treatment at entry, the time until MMR was obtained retrospectively from their medical files.
Comparison of adherence (continuous) and Cmin values (either grouped into quartiles [Q1 vs. Q2–Q4] or based on a previously reported threshold concentration of 490 μg/L) among response groups (time to MMR after start of nilotinib treatment ≤ 12 months vs. > 12 months, stratified by line of treatment) was performed using Mann-Whitney tests and Fisher’s exact tests. Time to MMR was assessed using the Kaplan Meier method with logrank test. In these outcome analyses, the mean of each measure of adherence and Cmin values was used. For all analyses, a two-tailed significance level of 0.05 was used. p values below this level were considered statistically significant. All statistical analyses were performed using SPSS version 22 for Windows (IBM Corp, Armonk, NY, USA).

BCR-ABL transcript level [2] = test system: BCR-ABL transcript level; parameters: method as in PMID 26837842; conditions: 5-year update of the ENESTnd trial, first-line; cited from earlier work
[3] = Patient-reported side effects of nilotinib (questionnaire, 5-point Likert scale); type: in vivo, CP-CML patients
Excerpt: At study entry, patients completed a self-administered composite questionnaire including demographic characteristics (date of birth, gender, education, living status, and working status), use of St. John’s wort, use of grapefruit (juice), quality of life (Short Form-12 Health Survey [SF-12]), side effects, and beliefs about medication in general (Beliefs about Medicines Questionnaire [BMQ]-General) and specifically about nilotinib (BMQ-Specific). The questionnaire at 3, 6, and 12 months also included the MARS-5 and questions on nilotinib intake in relation to food intake, use of tools to prevent forgetting, illness perception (Brief Illness Perception Questionnaire [Brief IPQ]), and information satisfaction (Satisfaction with Information about Medicines Scale [SIMS])[51, 52]. Education was assessed as the highest level completed, and dichotomized into higher education (higher general secondary education or above) and lower education. Living status was categorized as living alone or not living alone, and work status as having paid work or not. Questions on side effects were based on literature data and concerned specific nilotinib toxicities occurring in > 10% of patients (headache, nausea, rash, itching, myalgia, fatigue). Answers were scored on a 5-point Likert scale (0 = not at all to 4 = very much). Symptoms scored as “3 = a lot” or “4 = very much” were considered “severe.”

[4] = Nilotinib trough plasma concentration (Cmin) from dried blood spot self-sampling; type: in vivo, CP-CML patients
Procedure: Blood sampling was performed by the patient at home by means of a validated dried blood spot (DBS) sampling method. Using the DBS, nilotinib plasma concentrations were calculated as previously reported. Patients were instructed to sample blood at predose at baseline (if already on nilotinib treatment), 3, 6, and 12 months from study entry. The time of blood sampling, time of last nilotinib intake, and body weight were recorded in patient diaries. Cmin samples were defined as those taken between 8 and 16 h after the prior dose.
Individual measures of exposure were obtained using averaged Cmin values for individual patients based on the measurements obtained at baseline, 3, 6, and 12 months. Intra-patient variability in nilotinib Cmin was analyzed in patients who had ≥ 2 analyzed samples available and expressed as the average coefficient of variation (CV%). Missing Cmin values were imputed with the mean of the observed Cmin values for the corresponding dose. Univariable linear regression was used to identify variables (one by one) related to nilotinib Cmin. GEE was used to identify whether the occurrence of side effects was related to observed nilotinib Cmin values (without imputation) obtained at baseline, 3, 6, and 12 months.

[5] = Nilotinib treatment discontinuation during the 12-month study period; type: in vivo, CP-CML patients; conditions: of 68 patients
Excerpt: In this multicenter prospective observational study, conducted between August 2013 and April 2017 in six Dutch hospitals, CP-CML patients using nilotinib were followed for 12 months. Initially, it was the aim only to include newly diagnosed CP-CML patients starting nilotinib treatment. […] The study was registered in the Netherlands Trial Register (NTR3992) and the protocol has been published previously.
Information on disease characteristics, medical history, co-medication, and nilotinib treatment was obtained from the patient’s medical file and pharmacy dispensing record.

[6] = second/third-line nilotinib treatment
[7] = 42 patients with ≥ 2 analyzed samples

## Cc1cn(-c2cc(NC(=O)c3ccc(C)c(Nc4nccc(-c5cccnc5)n4)c3)cc(C(F)(F)F)c2)cn1 [nilotinib]
BCR-ABL transcript level [1]; All patients, Cmin quartile Q1 (< 635 μg/L)
  1-year MMR rate according to nilotinib Cmin: 56% (5/9)
BCR-ABL transcript level [1]; All patients, Cmin quartile Q2 (Q2–Q3 635–< 1346 μg/L)
  1-year MMR rate according to nilotinib Cmin: 88% (7/8)
BCR-ABL transcript level [1]; All patients, Cmin quartile Q3 (Q2–Q3 635–< 1346 μg/L)
  1-year MMR rate according to nilotinib Cmin: 75% (12/16)
BCR-ABL transcript level [1]; All patients, Cmin quartile Q4 (≥ 1346 μg/L)
  1-year MMR rate according to nilotinib Cmin: 30% (3/10)
BCR-ABL transcript level [1]; Cmin quartile Q1, n = 5
  median time to MMR12: 6.4 months
BCR-ABL transcript level [1]; Cmin quartile Q2, n = 7
  median time to MMR12: 6.7 months
BCR-ABL transcript level [1]; Cmin quartile Q3, n = 12
  median time to MMR12: 4.3 months
BCR-ABL transcript level [1]; Cmin quartile Q4, n = 3
  median time to MMR12: 2.8 months
BCR-ABL transcript level [1]; Subpopulation 1A/1B (1st line treatment), Q1 (< 635 μg/L)
  1-year MMR rate according to nilotinib Cmin: 71% (5/7)
BCR-ABL transcript level [1]; Subpopulation 1A/1B (1st line treatment), Q2
  1-year MMR rate according to nilotinib Cmin: 100% (5/5)
BCR-ABL transcript level [1]; Subpopulation 1A/1B (1st line treatment), Q3
  1-year MMR rate according to nilotinib Cmin: 73% (8/11)
BCR-ABL transcript level [1]; Subpopulation 1A/1B (1st line treatment), Q4 (≥ 1346 μg/L)
  1-year MMR rate according to nilotinib Cmin: 40% (2/5)
BCR-ABL transcript level [1]; Subpopulation 2A/2B (≥ 2nd line treatment), Q1 (< 635 μg/L)
  1-year MMR rate according to nilotinib Cmin: 0% (0/2)
BCR-ABL transcript level [1]; Subpopulation 2A/2B (≥ 2nd line treatment), Q3
  1-year MMR rate according to nilotinib Cmin: 80% (4/5)
BCR-ABL transcript level [1]; Subpopulation 2A/2B (≥ 2nd line treatment), Q4 (≥ 1346 μg/L)
  1-year MMR rate according to nilotinib Cmin: 20% (1/5)
BCR-ABL transcript level [1]; first-line nilotinib treatment
  mean time to MMR12: 5.9 ± 3.2 months
  median time to MMR12: 6.1 months
  time to MMR12, range: 1.2–12.9 months
BCR-ABL transcript level [1]; first-line nilotinib treatment (subpopulations 1A/1B), 20/28
  1-year MMR rate: 71%
BCR-ABL transcript level [1]; range over lines of treatment
  overall 1-year MMR rate: 47 to 71%
BCR-ABL transcript level [1]; [6]
  mean time to MMR12: 5.8 ± 4.4 months
  median time to MMR12: 3.7 months
  time to MMR12, range: 2.6–12.4 months
BCR-ABL transcript level [1]; second/third-line nilotinib treatment (subpopulations 2A/2B), 7/15
  1-year MMR rate: 47%
BCR-ABL transcript level [2]
  1-year MMR rate: 55%
[3]
  Fatigue, % of patients experiencing (any severity): About 75%
  Itching, % of patients reporting (any severity): 59%
  Myalgia, % of patients reporting (any severity): 54%
  Rash, % of patients reporting (any severity): 43%
[3]; mild = a little bit/rather
  Fatigue, % mild: 54.9%
  Headache, % mild: 35.8%
  Itching, % mild: 51.9%
  Myalgia, % mild: 48.1%
  Nausea, % mild: 20.4%
  Rash, % mild: 35.2%
[3]; severe = a lot/very much
  Fatigue, % severe: 20% and 19.6%
  Headache, % severe: 1.9%
  Itching, % severe: 7.4%
  Myalgia, % severe: 6% and 5.8%
  Nausea, % severe: 1.9%
  Rash, % severe: 7.4%
[4]; 150 mg BID (n = 15 samples)
  Observed nilotinib Cmin, mean ± SD: 835 ± 412 ng/mL
  Observed nilotinib Cmin, median (IQR): 656 (548–1042) μg/L
  Observed nilotinib Cmin, range: 390 to 1793 ng/mL
[4]; 300 mg BID (n = 85 samples)
  Observed nilotinib Cmin, mean ± SD: 1021 ± 472 ng/mL
  Observed nilotinib Cmin, median (IQR): 954 (654–1274) μg/L
  Observed nilotinib Cmin, range: 196 to 2413 ng/mL
[4]; 300 mg QD (n = 6 samples)
  Observed nilotinib Cmin, mean ± SD: 567 ± 110 ng/mL
  Observed nilotinib Cmin, median (IQR): 589 (450–658) μg/L
  Observed nilotinib Cmin, range: 418 to 702 ng/mL
[4]; 400 mg BID (n = 25 samples)
  Observed nilotinib Cmin, mean ± SD: 1497 ± 597 ng/mL
  Observed nilotinib Cmin, median (IQR): 1253 (1054–2053) μg/L
  Observed nilotinib Cmin, range: 342 to 2540 ng/mL
[4]; 400 mg QD (n = 6 samples)
  Observed nilotinib Cmin, mean ± SD: 536 ± 57 ng/mL
  Observed nilotinib Cmin, median (IQR): 552 (517–570) μg/L
  Observed nilotinib Cmin, range: 422 to 574 ng/mL
[4]; [7]
  intra-patient variability, %CV in Cmin (mean ± SD): 25 ± 19%
  intra-patient variability, %CV in Cmin, median: 20%
  intra-patient variability, %CV in Cmin, range: 1–91%
[4]; in vivo
  patients with nilotinib Cmin generally above the therapeutic target: 95%
[4]; nine patients
  range of Cmin values below the threshold concentration of 490 μg/L: 196 to 467 ng/mL
[4]; nine patients of 56
  patients with a Cmin below the threshold concentration of 490 μg/L at any time: 16%
[4]; patients reporting Fatigue: Mild (n = 72)
  Cmin median (IQR): 974 (644–1373) μg/L
[4]; patients reporting Fatigue: None (n = 32)
  Cmin median (IQR): 777 (561–1087) μg/L
[4]; patients reporting Fatigue: Severe (n = 25), p any .007, severe .023
  Cmin median (IQR): 1160 (787–1468) μg/L
[4]; patients reporting Headache: Mild (n = 40)
  Cmin median (IQR): 905 (625–1254) μg/L
[4]; patients reporting Headache: None (n = 91)
  Cmin median (IQR): 970 (618–1288) μg/L
[4]; patients reporting Headache: Severe (n = 1)
  Cmin median (IQR): 2413 µg/L
[4]; patients reporting Itching: Mild (n = 61)
  Cmin median (IQR): 923 (740–1243) μg/L
[4]; patients reporting Itching: None (n = 61)
  Cmin median (IQR): 954 (565–1283) μg/L
[4]; patients reporting Itching: Severe (n = 11), p severe .012
  Cmin median (IQR): 1260 (1021–1800) μg/L
[4]; patients reporting Myalgia: Mild (n = 62)
  Cmin median (IQR): 1031 (765–1380) μg/L
[4]; patients reporting Myalgia: None (n = 56)
  Cmin median (IQR): 857 (574–1219) μg/L
[4]; patients reporting Myalgia: Severe (n = 12)
  Cmin median (IQR): 840 (658–1553) μg/L
[4]; patients reporting Nausea: Mild (n = 27)
  Cmin median (IQR): 1210 (750–1798) μg/L
[4]; patients reporting Nausea: None (n = 104)
  Cmin median (IQR): 945 (615–1249) μg/L
[4]; patients reporting Nausea: Severe (n = 1)
  Cmin median (IQR): 648 µg/L
[4]; patients reporting Rash: None (n = 75)
  Cmin median (IQR): 964 (598–1338) μg/L
[4]; patients reporting Rash: Severe (n = 12)
  Cmin median (IQR): 1157 (764–1540) μg/L
[5]
  number of patients who discontinued nilotinib treatment due to progression: 4
  number of patients who discontinued nilotinib treatment due to side effects: 6

Source: article PMC7419465, “Response and Adherence to Nilotinib in Daily practice (RAND study): an in-depth observational study of chronic myeloid leukemia patients treated with nilotinib” (European Journal of Clinical Pharmacology, 2020)
